Reference: patent publication US10870647B2, “Imidazopyridine derivative, method for preparing same, and pharmaceutical composition containing same as active ingredient for preventing or treating cancer” (DAEGU-GYEONGBUK MEDICAL INNOVATION FOUNDATION, priority 2016, dated 2020)
Like-named read-outs stand apart in the source and are kept apart here.

Key:
Experiment in all cases: Kinase selectivity, scanMAX Kinase assay panel (DiscoverX), % control at 1 uM
Format in all cases: binding
[1] = target: T1, scanMAX Kinase assay panel (Homo sapiens, UniProt O43353); conditions: RIPK2; 1 uM; read-out: Percent Control (%)
T1 construct: purchased DiscoverX
T1 sequence (O43353 whole entry): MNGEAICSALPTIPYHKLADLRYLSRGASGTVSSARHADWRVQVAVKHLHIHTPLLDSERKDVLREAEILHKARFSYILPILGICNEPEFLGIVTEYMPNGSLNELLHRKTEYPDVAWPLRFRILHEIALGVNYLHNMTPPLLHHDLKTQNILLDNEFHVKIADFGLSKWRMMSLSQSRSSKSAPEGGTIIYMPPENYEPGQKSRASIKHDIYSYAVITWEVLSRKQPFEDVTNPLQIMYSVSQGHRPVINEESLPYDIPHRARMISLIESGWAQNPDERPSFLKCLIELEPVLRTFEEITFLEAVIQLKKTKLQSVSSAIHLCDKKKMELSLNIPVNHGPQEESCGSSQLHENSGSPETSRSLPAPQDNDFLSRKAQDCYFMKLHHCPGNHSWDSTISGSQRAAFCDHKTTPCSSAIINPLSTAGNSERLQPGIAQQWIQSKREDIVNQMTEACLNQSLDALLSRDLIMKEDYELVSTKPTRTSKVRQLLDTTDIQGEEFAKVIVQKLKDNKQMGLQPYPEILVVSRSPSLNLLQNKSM
Procedure, shortened: (§1)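 Each kinase was first exposed to the test compound at 1 uM in DMSO. Signal was then normalised to positive and negative controls to give % control. Finally, any enzyme showing <35% control was judged inhibited.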

[2] = target: T2, scanMAX Kinase assay panel (Homo sapiens, UniProt O75582); conditions: 1 uM, read-out: Percent Control (%)
T2 construct: purchased DiscoverX
T2 sequence (O75582 whole entry): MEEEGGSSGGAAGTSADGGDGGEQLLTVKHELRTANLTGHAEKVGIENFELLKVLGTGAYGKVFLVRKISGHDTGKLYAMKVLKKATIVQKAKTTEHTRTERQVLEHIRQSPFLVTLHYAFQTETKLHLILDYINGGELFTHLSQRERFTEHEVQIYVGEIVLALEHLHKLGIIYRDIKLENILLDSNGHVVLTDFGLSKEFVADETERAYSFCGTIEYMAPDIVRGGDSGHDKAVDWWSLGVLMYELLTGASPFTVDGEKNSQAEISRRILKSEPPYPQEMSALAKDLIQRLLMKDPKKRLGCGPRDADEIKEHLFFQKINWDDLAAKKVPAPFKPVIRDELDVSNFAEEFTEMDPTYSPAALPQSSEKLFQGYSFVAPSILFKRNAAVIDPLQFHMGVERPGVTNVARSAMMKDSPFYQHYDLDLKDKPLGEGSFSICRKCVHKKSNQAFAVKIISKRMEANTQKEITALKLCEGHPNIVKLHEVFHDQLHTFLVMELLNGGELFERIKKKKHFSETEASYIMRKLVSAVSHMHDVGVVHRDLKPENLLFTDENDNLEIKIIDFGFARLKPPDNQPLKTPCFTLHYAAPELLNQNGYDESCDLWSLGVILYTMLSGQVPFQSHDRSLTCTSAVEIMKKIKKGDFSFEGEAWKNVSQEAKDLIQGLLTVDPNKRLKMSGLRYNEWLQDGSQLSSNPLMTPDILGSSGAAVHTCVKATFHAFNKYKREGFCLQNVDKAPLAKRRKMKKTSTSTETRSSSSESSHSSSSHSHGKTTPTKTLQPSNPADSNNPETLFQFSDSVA
Procedure, shortened: as §1

[3] = target: T3, scanMAX Kinase assay panel (Homo sapiens, UniProt P29597); conditions: 1 uM, read-out: Percent Control (%)
T3 construct: purchased DiscoverX
T3 sequence (P29597 whole entry): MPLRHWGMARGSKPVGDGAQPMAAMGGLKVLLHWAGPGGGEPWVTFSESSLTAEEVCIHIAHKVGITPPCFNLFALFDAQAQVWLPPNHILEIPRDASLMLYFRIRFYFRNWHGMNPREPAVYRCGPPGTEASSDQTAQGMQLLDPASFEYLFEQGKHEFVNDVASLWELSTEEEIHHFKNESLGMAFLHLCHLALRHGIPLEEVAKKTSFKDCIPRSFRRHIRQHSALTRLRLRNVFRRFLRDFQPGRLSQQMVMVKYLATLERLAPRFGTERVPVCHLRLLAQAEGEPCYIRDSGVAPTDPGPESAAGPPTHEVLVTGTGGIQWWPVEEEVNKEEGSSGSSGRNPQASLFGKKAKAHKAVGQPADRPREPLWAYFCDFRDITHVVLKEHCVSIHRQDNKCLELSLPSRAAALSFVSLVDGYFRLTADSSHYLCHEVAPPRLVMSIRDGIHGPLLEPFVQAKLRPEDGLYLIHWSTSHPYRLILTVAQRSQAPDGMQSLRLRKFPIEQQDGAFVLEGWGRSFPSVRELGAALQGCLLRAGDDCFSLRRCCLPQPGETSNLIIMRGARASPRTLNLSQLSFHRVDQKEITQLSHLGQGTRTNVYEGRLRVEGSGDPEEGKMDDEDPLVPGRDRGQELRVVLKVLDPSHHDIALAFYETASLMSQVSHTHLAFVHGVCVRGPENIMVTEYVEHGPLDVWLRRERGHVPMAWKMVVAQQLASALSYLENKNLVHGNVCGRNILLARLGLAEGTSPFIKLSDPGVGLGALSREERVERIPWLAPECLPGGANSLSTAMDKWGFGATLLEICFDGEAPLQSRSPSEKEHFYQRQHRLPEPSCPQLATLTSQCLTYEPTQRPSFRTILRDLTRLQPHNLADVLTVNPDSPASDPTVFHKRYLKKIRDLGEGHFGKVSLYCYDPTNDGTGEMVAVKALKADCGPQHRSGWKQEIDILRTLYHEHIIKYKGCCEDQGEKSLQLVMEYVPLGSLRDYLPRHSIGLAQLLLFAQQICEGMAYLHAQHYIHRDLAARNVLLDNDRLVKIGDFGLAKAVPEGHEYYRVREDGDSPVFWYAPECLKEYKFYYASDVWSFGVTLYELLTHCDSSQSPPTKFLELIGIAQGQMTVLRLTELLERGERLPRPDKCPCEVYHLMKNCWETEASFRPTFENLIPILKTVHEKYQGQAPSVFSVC
Procedure, shortened: as §1

[4] = target: T4, scanMAX Kinase assay panel (Homo sapiens, UniProt P29322); conditions: EPHA8; 1 uM; read-out: Percent Control (%)
T4 construct: purchased DiscoverX
T4 sequence (P29322 28-1005): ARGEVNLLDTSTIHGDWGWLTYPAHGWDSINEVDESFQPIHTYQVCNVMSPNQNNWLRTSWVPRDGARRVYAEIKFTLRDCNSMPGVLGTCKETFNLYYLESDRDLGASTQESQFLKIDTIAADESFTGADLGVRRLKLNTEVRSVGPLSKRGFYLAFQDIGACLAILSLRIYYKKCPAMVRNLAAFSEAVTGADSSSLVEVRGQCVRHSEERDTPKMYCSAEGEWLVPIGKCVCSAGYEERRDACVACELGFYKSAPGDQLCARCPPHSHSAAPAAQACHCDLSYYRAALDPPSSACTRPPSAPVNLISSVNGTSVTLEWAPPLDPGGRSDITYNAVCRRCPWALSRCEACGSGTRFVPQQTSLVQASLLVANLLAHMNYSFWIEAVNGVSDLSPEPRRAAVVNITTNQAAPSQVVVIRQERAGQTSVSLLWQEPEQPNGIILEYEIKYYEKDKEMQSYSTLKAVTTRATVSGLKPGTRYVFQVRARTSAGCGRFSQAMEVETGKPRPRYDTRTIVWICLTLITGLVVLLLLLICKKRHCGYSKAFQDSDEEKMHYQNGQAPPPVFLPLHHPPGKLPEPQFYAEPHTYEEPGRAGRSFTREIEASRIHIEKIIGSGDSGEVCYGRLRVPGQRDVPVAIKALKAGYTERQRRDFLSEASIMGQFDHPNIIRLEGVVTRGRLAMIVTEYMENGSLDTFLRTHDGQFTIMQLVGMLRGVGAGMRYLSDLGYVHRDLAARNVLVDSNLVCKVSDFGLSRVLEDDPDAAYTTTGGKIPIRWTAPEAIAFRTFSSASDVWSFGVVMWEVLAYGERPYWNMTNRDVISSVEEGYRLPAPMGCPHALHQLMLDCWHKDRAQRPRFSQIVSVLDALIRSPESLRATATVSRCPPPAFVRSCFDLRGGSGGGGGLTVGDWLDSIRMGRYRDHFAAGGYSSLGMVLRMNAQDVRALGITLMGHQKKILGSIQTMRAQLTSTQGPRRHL
Procedure, shortened: as §1

[5] = target: T5, scanMAX Kinase assay panel (Homo sapiens, UniProt Q8WXR4); conditions: MYO3B; 1 uM; read-out: Percent Control (%)
T5 construct: purchased DiscoverX
T5 sequence (Q8WXR4 1-1341): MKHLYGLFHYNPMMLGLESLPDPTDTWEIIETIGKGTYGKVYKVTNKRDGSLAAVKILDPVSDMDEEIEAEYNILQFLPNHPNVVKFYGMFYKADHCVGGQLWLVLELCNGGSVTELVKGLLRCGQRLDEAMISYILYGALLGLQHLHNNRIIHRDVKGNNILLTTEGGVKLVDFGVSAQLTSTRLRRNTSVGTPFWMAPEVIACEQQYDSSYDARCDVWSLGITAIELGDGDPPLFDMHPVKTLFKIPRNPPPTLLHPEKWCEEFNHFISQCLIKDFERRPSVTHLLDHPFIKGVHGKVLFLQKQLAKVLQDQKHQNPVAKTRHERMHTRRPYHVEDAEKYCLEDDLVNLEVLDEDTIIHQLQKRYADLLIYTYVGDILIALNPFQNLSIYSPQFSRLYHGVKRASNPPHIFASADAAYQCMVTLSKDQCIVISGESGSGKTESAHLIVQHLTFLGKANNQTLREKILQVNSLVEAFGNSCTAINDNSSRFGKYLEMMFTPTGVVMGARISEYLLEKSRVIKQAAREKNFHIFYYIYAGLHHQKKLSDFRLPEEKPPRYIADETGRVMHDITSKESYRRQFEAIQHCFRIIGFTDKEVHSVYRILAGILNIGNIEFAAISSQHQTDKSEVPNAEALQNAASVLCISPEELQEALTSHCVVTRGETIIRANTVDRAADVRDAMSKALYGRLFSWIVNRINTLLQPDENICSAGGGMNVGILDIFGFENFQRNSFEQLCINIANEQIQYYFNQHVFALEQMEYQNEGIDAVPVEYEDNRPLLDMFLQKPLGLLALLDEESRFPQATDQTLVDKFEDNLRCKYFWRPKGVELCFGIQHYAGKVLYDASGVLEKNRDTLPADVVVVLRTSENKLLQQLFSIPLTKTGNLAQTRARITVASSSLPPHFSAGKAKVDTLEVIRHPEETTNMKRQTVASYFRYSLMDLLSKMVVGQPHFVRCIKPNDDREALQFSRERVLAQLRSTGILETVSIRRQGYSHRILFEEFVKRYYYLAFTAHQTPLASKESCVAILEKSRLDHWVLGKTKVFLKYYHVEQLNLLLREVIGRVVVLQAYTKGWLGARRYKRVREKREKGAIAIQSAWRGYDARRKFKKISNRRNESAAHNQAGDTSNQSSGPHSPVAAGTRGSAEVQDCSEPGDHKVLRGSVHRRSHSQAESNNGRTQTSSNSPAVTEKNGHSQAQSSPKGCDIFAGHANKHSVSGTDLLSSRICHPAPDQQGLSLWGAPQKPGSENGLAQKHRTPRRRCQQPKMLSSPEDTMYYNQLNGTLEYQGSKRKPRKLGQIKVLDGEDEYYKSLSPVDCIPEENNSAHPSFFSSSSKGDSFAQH
Procedure, shortened: as §1

[6] = target: T6, scanMAX Kinase assay panel (Homo sapiens, UniProt P21860); conditions: ERBB3; 1 uM; read-out: Percent Control (%)
T6 construct: purchased DiscoverX
T6 sequence (P21860 20-1342): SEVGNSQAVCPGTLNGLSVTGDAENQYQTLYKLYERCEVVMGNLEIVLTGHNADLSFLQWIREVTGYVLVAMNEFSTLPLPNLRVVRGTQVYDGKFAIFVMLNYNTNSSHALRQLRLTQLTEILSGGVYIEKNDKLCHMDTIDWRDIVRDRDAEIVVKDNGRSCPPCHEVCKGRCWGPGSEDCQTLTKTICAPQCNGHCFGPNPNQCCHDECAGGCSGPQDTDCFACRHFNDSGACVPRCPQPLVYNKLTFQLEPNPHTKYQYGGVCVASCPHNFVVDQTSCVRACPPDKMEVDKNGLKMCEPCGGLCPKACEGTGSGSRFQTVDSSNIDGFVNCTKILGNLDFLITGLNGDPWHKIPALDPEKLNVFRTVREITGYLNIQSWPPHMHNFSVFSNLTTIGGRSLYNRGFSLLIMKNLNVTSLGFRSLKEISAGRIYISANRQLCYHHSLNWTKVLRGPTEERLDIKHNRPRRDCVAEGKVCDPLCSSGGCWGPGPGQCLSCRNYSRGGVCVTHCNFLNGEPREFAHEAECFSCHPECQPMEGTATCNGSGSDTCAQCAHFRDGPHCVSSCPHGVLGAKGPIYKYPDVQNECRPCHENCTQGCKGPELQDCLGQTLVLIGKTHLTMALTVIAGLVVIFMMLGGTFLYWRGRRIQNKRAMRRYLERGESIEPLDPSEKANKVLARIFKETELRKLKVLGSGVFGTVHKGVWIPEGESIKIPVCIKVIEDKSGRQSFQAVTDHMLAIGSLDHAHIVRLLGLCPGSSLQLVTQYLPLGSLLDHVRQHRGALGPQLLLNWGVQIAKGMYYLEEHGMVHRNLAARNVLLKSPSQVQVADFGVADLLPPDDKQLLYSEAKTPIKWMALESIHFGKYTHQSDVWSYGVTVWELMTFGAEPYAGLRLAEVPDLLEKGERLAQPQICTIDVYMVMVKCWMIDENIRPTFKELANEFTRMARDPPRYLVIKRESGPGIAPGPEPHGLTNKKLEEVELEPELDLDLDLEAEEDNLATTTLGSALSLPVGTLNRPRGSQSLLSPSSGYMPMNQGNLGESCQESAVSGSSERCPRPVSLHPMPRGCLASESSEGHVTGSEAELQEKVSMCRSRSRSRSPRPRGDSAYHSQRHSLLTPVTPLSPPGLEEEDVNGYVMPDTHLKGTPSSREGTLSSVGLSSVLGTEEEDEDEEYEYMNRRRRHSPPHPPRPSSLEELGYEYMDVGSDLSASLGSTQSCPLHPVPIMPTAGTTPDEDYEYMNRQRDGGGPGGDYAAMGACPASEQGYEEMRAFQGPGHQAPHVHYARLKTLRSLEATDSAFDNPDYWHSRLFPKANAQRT
Procedure, shortened: as §1

| Compound | remaining binding at 1 µM [1] | remaining binding at 1 µM ([2]; RPS6KA5 (Kin.Dom.1-N-terminal)) | remaining binding at 1 µM ([2]; RPS6KA5 (Kin.Dom.2-C-terminal)) | remaining binding at 1 µM ([3]; TYK2 (JH1domain-catalytic)) | remaining binding at 1 µM ([3]; TYK2 (JH2domain-pseudokinase)) | remaining binding at 1 µM [4] | remaining binding at 1 µM [5] | remaining binding at 1 µM [6] |
| --- | --- | --- | --- | --- | --- | --- | --- | --- |
| Cc1ccc(NC(=O)C2(C(=O)Nc3ccc(F)cc3)CC2)cc1C#Cc1cnc2c(Nc3cnn(C(C)C)c3)cccn12 [Example 78] | 99% | 100% | 100% | 97% | 100% | 46% | 92% | 99% |
| Cc1cn(-c2cc(NC(=O)c3ccc(C)c(C#Cc4cnc5c(Nc6cnn(C)c6)cccn45)c3)cc(C(F)(F)F)c2)cn1 [Example 12, 4-methyl-N-(3-(4-methyl-1H-imidazol-1-yl)-5-(trifluoromethyl)phenyl)-3-((8-((1-methyl-1H-pyrazol-4-yl)amino)imidazo[1,2-a]pyridin-3-yl)ethynyl)benzamide] | 22% | 99% | 94% | 96% | 100% | 1% | 81% | 98% |
| Cc1ccc(C(=O)Nc2ccc(CN3CCN(C)CC3)c(C(F)(F)F)c2)cc1C#Cc1cnc2c(Nc3cnn(C)c3)cccn12 [Example 1, 4-methyl-3-((8-((1-methyl-1H-pyrazol-4-yl)amino)imidazo[1,2-a]pyridin-3-yl)ethynyl)-N-(4-((4-methylpiperazin-1-yl)methyl)-3-(trifluoromethyl)phenyl)benzamide] | 7% | 38% | 69% | 9% | 100% | 0% | 35% | 86% |
